Measurements from patent US20250084084A1, “Crystalline form of (2R)-2-(5-fluoro-2-methoxypyridin-4-yl)-1-[(2S)-7-methyl-6-(pyrimidin-2-yl)-3,4-dihydro-1H-spiro[1,8-naphthyridine-2,3-pyrrolidin]-1-yl]propan-1-one” (Pfizer Inc., priority 2020, published 2025).

molecular target: α-melanocyte-stimulating hormone receptor (hMC4R) (Homo sapiens (Human), UniProt P32245); test: In vitro binding affinity assay using hMC4R (radioligand competition binding, [125I]-(Nle4, D-Phe7)-α-MSH); conditions: geometric mean, read-out: Ki (nM) geometric
Sequence (P32245 whole entry): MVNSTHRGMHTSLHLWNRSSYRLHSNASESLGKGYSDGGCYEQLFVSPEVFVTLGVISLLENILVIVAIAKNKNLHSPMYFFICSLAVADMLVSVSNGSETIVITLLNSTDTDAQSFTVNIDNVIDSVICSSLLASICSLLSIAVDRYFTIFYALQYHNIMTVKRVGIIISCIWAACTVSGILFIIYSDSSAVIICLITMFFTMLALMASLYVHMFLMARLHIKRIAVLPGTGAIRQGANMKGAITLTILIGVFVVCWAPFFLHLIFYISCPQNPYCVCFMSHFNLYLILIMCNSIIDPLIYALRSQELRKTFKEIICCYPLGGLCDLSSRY
Experimental: The binding affinity of test compounds at the α-melanocyte-stimulating hormone receptor (hMC4R) was assessed using a radioligand competition binding assay. Recombinant Chinese hamster ovaries (CHO) cells stably expressing hMC4R (PerkinElmer #ES-191-C) were used for competitive binding. hMC4R membranes were grown in Dulbecco's Modified Essential Medium and Ham's F-12 Medium (DMEM/F12), 10% heat inactivated fetal bovine serum (FBS), 0.4 mg/mL Geneticin and 2 mM L-glutamine. Cell membranes were bulked and frozen until the assay was performed.
Compounds were solubilized in 100% dimethyl sulfoxide (DMSO) to a concentration of 30 mM. A 10-point intermediate dilution series using half log dilutions was created in 100% DMSO with a top concentration of 0.03 mM. The serially diluted compounds were spotted as 1 μL/well, in 96-well Costar 3363 plates. The final compound range in the assay was 300 nM to 0.01 nM with a final DMSO concentration of 1%. Control wells, containing 1 μL of 2 mM ([…]) alpha-melanocyte stimulating hormone (α-MSH-Tocris #2584) was added to the non-specific binding wells and 1 μL 100% DMSO for the total binding control wells. […] The exact concentration of radioligand used for each experiment was determined by liquid scintillation counting and adjusted if necessary.
Frozen hMC4R cell membranes were thawed and Dounce homogenized. Homogenates were resuspended in assay buffer to a concentration of 2 μg per well. […] The plates were incubated for 2 hours at room temperature. Assay samples were then rapidly filtered through Unifilter-96 GF/B PEI coated filter plates using a filter plate harvester (PerkinElmer) and rinsed with ice-cold wash buffer [25 mM (4-(2-hydroxyethyl)-1-piperazineethanesulfonic acid (HEPES), 1 mM MgCl2, 2.5 mM CaCl2, and 500 mM NaCl]. Filter plates were dried overnight at room temperature. Plates were then bottom-sealed prior to the addition of 50 μL/well Ultima Gold XR scintillation fluid (PerkinElmer 6013111). Plates were then top-sealed, incubated for 60 minutes at room temperature and then the amount of radioactivity present was determined by liquid scintillation counting on a Microbeta Trilux (PerkinElmer #2450-0060).
The raw data (expressed as counts per minute) were analyzed using ActivityBase (IDBS Data Management Software). […] Equilibrium dissociation constant for inhibitor of ligand and receptor interaction (Ki) values were then calculated from the IC50 values using the Cheng-Prusoff equation: Ki=IC50/(1+([L]/Kd)), where [L] is the concentration of the radioligand used in the experiment and Kd is the affinity of the radioligand (determined in separate saturation experiments).

Row | SMILES | Ki [nM]
1 | COc1cc([C@@H](C)C(=O)N2CC[C@@]3(CCc4cc(-c5csc(C6CC6)n5)c(C)nc4N3)C2)c(F)cn1 [Example 171, (2R)-1-[(2S)-6-(2-cyclopropyl-1,3-thiazol-4-yl)-7-methyl-3,4-dihydro-1H-spiro[1,8-naphthyridine-2,3′-pyrrolidin]-1′-yl]-2-(5-fluoro-2-methoxypyridin-4-yl)propan-1-one] | 3.6
2 | COc1cc([C@@H](C)C(=O)N2CC[C@@]3(CCc4cc(-c5ccc(C6CC6)cn5)c(C)nc4N3)C2)c(F)cn1 [Example 186, (2R)-1-[(2S)-6-(5-cyclopropylpyridin-2-yl)-7-methyl-3,4-dihydro-1H-spiro[1,8-naphthyridine-2,3′-pyrrolidin]-1′-yl]-2-(5-fluoro-2-methoxypyridin-4-yl)propan-1-one] | 19
3 | Cc1nc2c(cc1-c1ncccn1)CC[C@@]1(CCN(C(=O)C(C)c3ccc(F)cc3F)C1)N2 (single isomer, unassigned) [Example 190] | 2.3
4 | COc1cc([C@@H](C)C(=O)N2CC[C@@]3(CCc4cc(-c5cnn(C)c5)c(C)nc4N3)C2)c(Cl)cn1 (single isomer, unassigned) [Example 104] | 0.48
5 | COc1cc([C@@H](C)C(=O)N2CC[C@@]3(CCc4cc(-c5nccc(C(F)(F)F)n5)c(C)nc4N3)C2)c(F)cn1 [Example 143, (2R)-2-(5-fluoro-2-methoxypyridin-4-yl)-1-{(2S)-7-methyl-6-[4-(trifluoromethyl)pyrimidin-2-yl]-3,4-dihydro-1H-spiro[1,8-naphthyridine-2,3′-pyrrolidin]-1′-yl}propan-1-one] | 1.3
6 | COc1cc([C@@H](C)C(=O)N2CC[C@@]3(CCc4cc(-c5nc(C(F)F)n(C)n5)c(C)nc4N3)C2)c(Cl)cn1 [Example 120, (2R)-2-(5-chloro-2-methoxypyridin-4-yl)-1-{(2S)-6-[5-(difluoromethyl)-1-methyl-1H-1,2,4-triazol-3-yl]-7-methyl-3,4-dihydro-1H-spiro[1,8-naphthyridine-2,3′-pyrrolidin]-1′-yl}propan-1-one] | 0.4
7 | COc1cc([C@@H](C)C(=O)N2CC[C@@]3(CCc4cc(-c5ncccn5)c(C)nc4N3)C2)c(C)cn1 (single isomer, unassigned) [Example 136] | 1.4
8 | COc1cc(C(C)C(=O)N2CC[C@@]3(CCc4cc(-c5ncccn5)c(C)nc4N3)C2)cc(OC(F)F)n1 (single isomer, unassigned) [Example 192] | 0.27
9 | COc1cc([C@@H](C)C(=O)N2CC[C@@]3(CCc4cc(-c5cccc(-c6nnc(C)o6)c5)c(C)nc4N3)C2)c(F)cn1 [Example 161, (2R)-2-(5-fluoro-2-methoxypyridin-4-yl)-1-{(2S)-7-methyl-6-[3-(5-methyl-1,3,4-oxadiazol-2-yl)phenyl]-3,4-dihydro-1H-spiro[1,8-naphthyridine-2,3′-pyrrolidin]-1′-yl}propan-1-one] | 47
10 | COc1cc([C@@H](C)C(=O)N2CC[C@@]3(CCc4cc(-c5ccc(C(F)F)nc5)c(C)nc4N3)C2)c(F)cn1 [Example 174, (2R)-1-{(2S)-6-[6-(difluoromethyl)pyridin-3-yl)-7-methyl-3,4-dihydro-1H-spiro[1,8-naphthyridine-2,3′-pyrrolidin]-1′-yl}-2-(5-fluoro-2-methoxypyridin-4-yl)propan-1-one] | 26

Now from value to compound:

Row | Ki [nM] | SMILES
11 | 15 | COc1cc([C@@H](C)C(=O)N2CC[C@@]3(CCc4cc(-c5nc(C(C)(C)C)cs5)c(C)nc4N3)C2)c(F)cn1 [Example 157, (2R)-1-[(2S)-6-(4-tert-butyl-1,3-thiazol-2-yl)-7-methyl-3,4-dihydro-1H-spiro[1,8-naphthyridine-2,3′-pyrrolidin]-1′-yl]-2-(5-fluoro-2-methoxypyridin-4-yl)propan-1-one]
12 | 110 | COc1cc([C@@H](C)C(=O)N2CC[C@@]3(CCc4cc(Cl)c(C)nc4N3)C2)c(F)cn1 (single isomer, unassigned) [Example 102]
13 | 0.83 | COc1cc([C@@H](C)C(=O)N2CC[C@@]3(CCc4cc(-c5cnn(C)n5)c(C)nc4N3)C2)c(F)cn1 [Example 118, (2R)-2-(5-fluoro-2-methoxypyridin-4-yl)-1-[(2S)-7-methyl-6-(2-methyl-2H-1,2,3-triazol-4-yl)-3,4-dihydro-1H-spiro[1,8-naphthyridine-2,3′-pyrrolidin]-1′-yl]propan-1-one]
14 | 23 | COc1cc([C@@H](C)C(=O)N2CC[C@@]3(CCc4cc(-c5cnc(C)nc5)c(C)nc4N3)C2)c(F)cn1 [Example 151, (2R)-2-(5-fluoro-2-methoxypyridin-4-yl)-1-[(2S)-7-methyl-6-(2-methylpyrimidin-5-yl)-3,4-dihydro-1H-spiro[1,8-naphthyridine-2,3′-pyrrolidin]-1′-yl]propan-1-one]
15 | 26 | COc1cc([C@@H](C)C(=O)N2CC[C@@]3(CCc4cc(-c5cc(C)ns5)c(C)nc4N3)C2)c(F)cn1 [Example 176, (2R)-2-(5-fluoro-2-methoxypyridin-4-yl)-1-[(2S)-7-methyl-6-(3-methyl-1,2-thiazol-5-yl)-3,4-dihydro-1H-spiro[1,8-naphthyridine-2,3′-pyrrolidin]-1′-yl]propan-1-one]
16 | 13 | COc1cc([C@@H](C)C(=O)N2CC[C@@]3(CCc4cc(-c5ccc(F)cn5)c(C)nc4N3)C2)c(F)cn1 [Example 139, (2R)-2-(5-fluoro-2-methoxypyridin-4-yl)-1-[(2S)-6-(5-fluoropyridin-2-yl)-7-methyl-3,4-dihydro-1H-spiro[1,8-naphthyridine-2,3′-pyrrolidin]-1′-yl]propan-1-one]
17 | 5.9 | COc1cc([C@@H](C)C(=O)N2CC[C@@]3(CCc4cc(-c5cncc(C)n5)c(C)nc4N3)C2)c(F)cn1 [Example 156, (2R)-2-(5-fluoro-2-methoxypyridin-4-yl)-1-[(2S)-7-methyl-6-(6-methylpyrazin-2-yl)-3,4-dihydro-1H-spiro[1,8-naphthyridine-2,3′-pyrrolidin]-1′-yl]propan-1-one]

same assay, conditions: geometric mean, read-out: Ki (nM) geometric mean

Row | Ki [nM] | SMILES
18 | 1.9 | COc1ccc([C@@H](C)C(=O)N2CC[C@@]3(CCc4cc(-c5ncccn5)c(C)nc4N3)C2)cc1F (single isomer, unassigned) [Example 42]
19 | 250 | Cc1nc2c(cc1-c1nnn(C)n1)CC[C@@]1(CCN(C(=O)Cc3ccc(C(F)(F)F)cc3)C1)N2 (single isomer, unassigned) [Example 66, 1-[7-methyl-6-(2-methyl-2H-tetrazol-5-yl)-3,4-dihydro-1H-spiro[1,8-naphthyridine-2,3′-pyrrolidin]-1′-yl]-2-[4-(trifluoromethyl)phenyl]ethan-1-one]
20 | 0.044 | COc1cc(OC)cc([C@@H](C)C(=O)N2CCC3(CCc4cc(-c5cnn(C)c5)c(C)nc4N3)C2)c1 (single isomer, unassigned) [Example 90]
21 | 150 | COc1cc([C@@H](C)C(=O)N2CC[C@@]3(CCc4cc(-c5ncccn5)c(C)nc4N3)C2)c(C(F)(F)F)cn1 (single isomer, unassigned) [Example 40]
22 | 1.7 | Cc1nc2c(cc1-c1cnn(C)c1)CC[C@@]1(CCN(C(=O)Cc3ccc(F)cc3)C1)N2 (stereo in doubt) [Example 89, 2-(4-fluorophenyl)-1-[7-methyl-6-(1-methyl-1H-pyrazol-4-yl)-3,4-dihydro-1H-spiro[1,8-naphthyridine-2,3′-pyrrolidin]-1′-yl]ethan-1-one]
23 | 2.8 | COc1cc([C@@H](C)C(=O)N2CC[C@@]3(CCc4ccc(C)nc4N3)C2)c(F)cn1 (single isomer, unassigned) [Example 98]
24 | 2 | COc1cc([C@@H](C)C(=O)N2CC[C@@]3(CCc4cc(-c5cn(C(F)(F)F)c(C)n5)c(C)nc4N3)C2)c(F)cn1 [Example 27, (2R)-2-(5-fluoro-2-methoxypyridin-4-yl)-1-{(2S)-7-methyl-6-[2-methyl-1-(trifluoromethyl)-1H-imidazol-4-yl]-3,4-dihydro-1H-spiro[1,8-naphthyridine-2,3′-pyrrolidin]-1′-yl}propan-1-one]

Row | SMILES | Ki [nM]
25 | [2H]c1cc([2H])nc(-c2cc3c(nc2C)N[C@@]2(CC3)CCN(C(=O)[C@H](C)c3cc(OC)ncc3F)C2)n1 [Example 18, (2R)-2-(5-Fluoro-2-methoxypyridin-4-yl)-1-{(2S)-7-methyl-6-[(4,6-2H2)pyrimidin-2-yl]-3,4-dihydro-1H-spiro[1,8-naphthyridine-2,3′-pyrrolidin]-1′-yl}propan-1-one] | 0.18
